One may read the IC50 as the midpoint of a concentration-inhibition curve. Usually EC50 stands for the concentration giving half of the maximal effect.

Consider 13 compounds from patent US20260364080A1, “PYRAZOLO-PYRIMIDINONE COMPOUNDS FOR USE IN METHODS OF INHIBITING WEE1 A KINASE” (Acrivon Therapeutics, Inc., priority 2023, published 2026).

Each structure is given as a SMILES string. Where only a bound is given, the exact number is not on record here.

In assay [1] the target is T1, recombinant human Wee1A kinase (Homo sapiens, UniProt P30291).
T1 construct: full length Wee1 kinase was expressed by baculovirus in insect cells; purchased Invitrogen PV3817; host or cells: insect cells (baculovirus)
In words: Wee1A kinase binding assay (LanthaScreen Eu time-resolved FRET). Conditions: 30 nM tracer 178, 5 nM Wee1A kinase, 2 nM Eu-labeled antibody; 60 minutes at room temperature; read-out: Wee1A kinase Binding IC50. In a few lines: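 Full-length, baculovirus-expressed GST-tagged Wee1A (5 nM) was mixed with 2 nM Eu-anti-GST antibody, 30 nM kinase tracer 178 and compound (1% DMSO). Buffer was 50 mM HEPES pH 7.5, 10 mM MgCl2, 1 mM EGTA, 0.01% Brij-35, incubated 60 min at room temperature. TR-FRET 665/615 nm emission ratios from duplicates were curve-fitted.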
Background: TR-FRET usually uses a lanthanide donor and a delayed reading to cut background.

Assay [2] addresses T2, Wee1A kinase (CDK1 Tyr15 phosphorylation in ACHN renal cell carcinoma cells) (Homo sapiens, UniProt P30291).
T2 construct: pCDK1 Tyr15 immunofluorescence read-out
Description: High-content imaging of pCdk1 Y15, Wee1A kinase target engagement in ACHN cells. Type of assay: cell-based. The conditions noted are these: 4 h treatment, nuclear positivity for pCdk1 Y15 vs DMSO control, read-out: CDK1 Tyr15 Phosphorylation EC50. In a few lines: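 EC50 values come from the per-well fraction of cells with nuclear pCdk1 Y15 staining, normalised to DMSO control, by automated immunofluorescence imaging. Cells were ACHN renal carcinoma, treated 4 h with compound at 7–5,000 nM or 0.3–200 nM.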

Assay [3] has as its target T3, Myt1 kinase (recombinant PMYT-1) (Homo sapiens, UniProt Q99640).
T3 construct: full length PMYT-1 was expressed by baculovirus in insect cells; purchased Invitrogen A30984; host or cells: insect cells (baculovirus)
T3 sequence (Q99640 1-499): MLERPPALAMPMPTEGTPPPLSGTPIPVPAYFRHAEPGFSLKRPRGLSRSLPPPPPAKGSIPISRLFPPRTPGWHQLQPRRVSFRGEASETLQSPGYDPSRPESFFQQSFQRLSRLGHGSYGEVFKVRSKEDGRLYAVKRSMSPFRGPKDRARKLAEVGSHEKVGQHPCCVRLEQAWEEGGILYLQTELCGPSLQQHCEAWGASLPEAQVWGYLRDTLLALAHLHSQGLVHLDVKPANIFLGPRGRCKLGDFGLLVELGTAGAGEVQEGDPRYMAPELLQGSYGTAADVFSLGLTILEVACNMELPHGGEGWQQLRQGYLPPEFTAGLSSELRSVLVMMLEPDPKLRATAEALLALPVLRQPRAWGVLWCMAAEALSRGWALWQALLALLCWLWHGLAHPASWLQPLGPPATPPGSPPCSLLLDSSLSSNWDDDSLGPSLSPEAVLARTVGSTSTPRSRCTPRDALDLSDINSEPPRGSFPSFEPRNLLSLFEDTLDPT
In words: Myt1 kinase binding assay (LanthaScreen Eu Kinase Binding Assay). Conditions: 3 nM tracer 178, 2.5 nM PMYT-1, 1 nM Eu-labeled antibody; read-out: Myt1 kinase Binding IC50. The method in brief:
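Compound binding to Myt1 kinase was assessed using the LanthaScreen Eu Kinase Binding Assay. This europium-based binding format was applied to quantify how strongly each compound bound to the Myt1 enzyme, and the binding affinity was reported for each compound as an IC50 value.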

Assay [4] relates to ACHN cells. Description: Cell Titer Glo viability assay, ACHN cells. In kind it is cell-based. The conditions noted are these: Homo sapiens, 144 h, absolute EC50. The method in brief: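 Cells grown in MEM with 10% FCS were seeded at 500 (A427), 400 (ACHN) or 250 (DAOY) per well and treated the next day with compound at 17 to 10 000 nM. Viability relative to untreated control was read at 144 h by CellTiter-Glo 2.0.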
Background: Cellular ATP, detected with luciferase, serves as a proxy for viable cell number.

Assay [5] concerns the target T4, Myt1 kinase (CDK1 Thr14 phosphorylation in DAOY medulloblastoma cells) (Homo sapiens, UniProt Q99640).
T4 construct: pCDK1 Thr14 AlphaLISA read-out
T4 sequence (Q99640 1-499): T3 sequence (Q99640 1-499)
Description: AlphaLISA assay, Myt1 kinase target engagement (phospho-CDK1 Thr14) in DAOY cells. The conditions noted are these: 4 h treatment, read-out: CDK1 Thr14 Phosphorylation EC50. Type of assay: cell-based. How it is done:
Each of an ACHN renal cell carcinoma cell line (ATCC) and a DAOY medulloblastoma cell line, and an A427 lung cancer line were cultured in Minimum Essential Medium Eagle supplemented with 10% fetal calf serum (Sigma), 1% Penicillin-Streptomycin and 10 mM HEPES buffer (HyClone). Cell cultures were kept in a humidified incubator at 37 °C and 5% CO2. Cells were routinely tested for Mycoplasma contamination.
For target engagement assessment of Myt1 kinase inhibition, quantification of Cdk1 phosphorylated on threonine 14 was detected using the AlphaLISA® SureFire® Ultra™ Human Phospho-CDK1 (Thr14) assay (Perkin Elmer). DAOY or ACHN cells were seeded into tissue culture treated 96-well plates (VWR) to a density of 10,000 or 20,000 cells per well respectively. 24 h post seeding cells were treated for 4 h with compounds at concentrations ranging from 7 to 5000 nM. Cells were washed with PBS and lysed in 50 μl AlphaLISA lysis buffer before freezing at −80 C. Ten ul of the lysate was transferred to 384 well plates and incubated with AlphaLISA donor and acceptor beads according to the manufacturer's instructions. Dose response curves and EC50 values were calculated and visualized using GraphPad Prism version 9. Target engagement for Myt1 kinase can also be measured using the same AlphaLISA assay in OVCAR3 cells, an ovarian cancer cell line. NIH:OVCAR-3 (OVCAR3) cells are cultured in RPMI-1640 medium supplemented with 0.01 mg/ml insulin, 20% FBS, 1% Penicillin-Streptomycin and 10 mM HEPES buffer. 14,000 cells per well are seeded into 96 well tissue culture plates in full medium. Twenty-four hours post seeding, cells are treated with compound for 4 hours at concentrations ranging from 0.017 nM to 1000 nM.
Background: Bead proximity is the source of the signal in Alpha formats.

T2 sequence (P30291 whole entry): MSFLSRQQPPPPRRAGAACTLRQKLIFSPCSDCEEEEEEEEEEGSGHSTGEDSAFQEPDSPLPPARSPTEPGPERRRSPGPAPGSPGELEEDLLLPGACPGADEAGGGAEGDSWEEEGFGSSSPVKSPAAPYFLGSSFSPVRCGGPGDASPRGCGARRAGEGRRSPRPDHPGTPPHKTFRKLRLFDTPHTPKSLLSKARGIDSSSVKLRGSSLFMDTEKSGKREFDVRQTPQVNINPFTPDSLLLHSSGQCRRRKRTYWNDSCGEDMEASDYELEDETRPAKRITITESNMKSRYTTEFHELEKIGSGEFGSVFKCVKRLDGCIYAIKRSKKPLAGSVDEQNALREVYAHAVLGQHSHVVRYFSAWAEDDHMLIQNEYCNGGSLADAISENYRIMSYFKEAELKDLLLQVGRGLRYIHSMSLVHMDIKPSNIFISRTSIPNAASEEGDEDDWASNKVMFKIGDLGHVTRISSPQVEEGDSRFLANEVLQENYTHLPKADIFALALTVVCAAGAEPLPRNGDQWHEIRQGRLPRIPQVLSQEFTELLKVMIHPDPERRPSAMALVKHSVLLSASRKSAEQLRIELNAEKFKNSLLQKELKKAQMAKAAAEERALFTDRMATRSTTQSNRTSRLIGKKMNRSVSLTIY
T1 sequence (P30291 whole entry): as above

As to `C=CCn1c(=O)c2cnc(Nc3cccnc3)nc2n1-c1cccc(OC2CCN(C)CC2)n1` [Compound 229, 2-allyl-1-[6-(1-methyl-4-piperidyloxy)-2-pyridyl]-6-(3-pyridylamino)-1,2-dihydro-3H-1,2,5,7-tetraazainden-3-one], the figures for the IC50 in assay [1] and in assay [3] were below 10 nM and 20 to 100 nM, respectively. In addition, the figures for the EC50 in assay [2], in assay [4] and in assay [5] were 100 to 500 nM, at most 100 nM and above 1000 nM, respectively.

Take `C=CCn1c(=O)c2cnc(Nc3ccc4[nH]ncc4c3)nc2n1-c1cccc(OC2CCN(C)CC2)n1` [Compound 238, 6-((1H-indazol-5-yl)amino)-2-allyl-1-(6-((1-methylpiperidin-4-yl)oxy)pyridin-2-yl)-1,2-dihydro-3H-pyrazolo[3,4-d]pyrimidin-3-one]: the 50% inhibitory concentration (IC50) in assay [1] is below 10 nM; in assay [3], 20 to 100 nM. For the same compound, the EC50 in assay [2] was below 100 nM; in assay [4], at most 100 nM; in assay [5] it was 200 to 500 nM.

In the case of `C=CCn1c(=O)c2cnc(Nc3ccc4ncccc4c3)nc2n1-c1cccc(OC2CCNCC2)n1` [Compound 242, 2-allyl-1-[6-(4-piperidyloxy)-2-pyridyl]-6-(6-quinolylamino)-1,2-dihydro-3H-1,2,5,7-tetraazainden-3-one], the IC50 in assay [1] was below 10 nM; in assay [3], below 20 nM. In addition, the EC50 in assay [2] is 100 to 500 nM; in assay [4], 100 to 500 nM; in assay [5], 500 to 1000 nM.

On to `C=CCn1c(=O)c2cnc(Nc3ccc4cccnc4c3)nc2n1-c1cccc(OC2CCNCC2)n1` [Compound 243, 2-allyl-1-[6-(4-piperidyloxy)-2-pyridyl]-6-(7-quinolylamino)-1,2-dihydro-3H-1,2,5,7-tetraazainden-3-one], for which the IC50 is below 10 nM in assay [1] and below 20 nM in assay [3]. The EC50 in assay [2] is below 100 nM; in assay [4], 100 to 500 nM; in assay [5], 500 to 1000 nM.

Turning to `C=CCn1c(=O)c2cnc(Nc3ccc4cnccc4c3)nc2n1-c1cccc(OC2CCNCC2)n1` [Compound 244, 2-allyl-6-(6-isoquinolylamino)-1-[6-(4-piperidyloxy)-2-pyridyl]-1,2-dihydro-3H-1,2,5,7-tetraazainden-3-one], the 50% inhibitory concentration (IC50) in assay [1] was below 10 nM; in assay [3], 20 to 100 nM. For the same compound, the concentration giving a half-maximal response (EC50) in assay [2] is below 100 nM; in assay [4], 100 to 500 nM; in assay [5], 500 to 1000 nM.

Regarding `C=CCn1c(=O)c2cnc(Nc3ccc(OC)nc3)nc2n1-c1cccc(OC2CCN(C)CC2)n1` [Compound 250, 2-allyl-6-(6-methoxy-3-pyridylamino)-1-[6-(1-methyl-4-piperidyloxy)-2-pyridyl]-1,2-dihydro-3H-1,2,5,7-tetraazainden-3-one], the IC50 in assay [1] is below 10 nM; in assay [3], 20 to 100 nM. The values for the EC50 in assay [2], in assay [4] and in assay [5] were below 100 nM, at most 100 nM and 200 to 500 nM, respectively.

For the compound `C=CCn1c(=O)c2cnc(Nc3ccc(OCC(F)(F)F)cc3)nc2n1-c1ccnc(OC2CCN(C)CC2)n1` [Compound 253, 2-allyl-1-(2-((1-methylpiperidin-4-yl)oxy)pyrimidin-4-yl)-6-((4-(2,2,2-trifluoroethoxy)phenyl)amino)-1,2-dihydro-3H-pyrazolo[3,4-d]pyrimidin-3-one], the 50% inhibitory concentration (IC50) in assay [1] is below 10 nM; in assay [3] it was 20 to 100 nM. Besides, the 50% effective concentration (EC50) in assay [2] was below 100 nM; in assay [4], at most 100 nM; in assay [5], above 1000 nM.

For `C=CCn1c(=O)c2cnc(Nc3ccc(OCC)cc3)nc2n1-c1cccc(OC2CCNCC2)n1` [Compound 254, 2-allyl-6-((4-ethoxyphenyl)amino)-1-(6-(piperidin-4-yloxy)pyridin-2-yl)-1,2-dihydro-3H-pyrazolo[3,4-d]pyrimidin-3-one], the results for the half-maximal inhibitory concentration (IC50) in assay [1] and in assay [3] were below 10 nM and 20 to 100 nM, respectively. Moreover, the figures for the EC50 in assay [2], in assay [4] and in assay [5] were below 100 nM, at most 100 nM and 500 to 1000 nM, respectively.

As to `C=CCn1c(=O)c2cnc(Nc3ccc(OCC)cc3)nc2n1-c1cccc(OC2CCN(C)CC2)n1` [Compound 255, 2-allyl-6-((4-ethoxyphenyl)amino)-1-(6-((1-methylpiperidin-4-yl)oxy)pyridin-2-yl)-1,2-dihydro-3H-pyrazolo[3,4-d]pyrimidin-3-one], the half-inhibitory concentration (IC50) was below 10 nM in assay [1] and below 20 nM in assay [3]. The values for the EC50 in assay [2], in assay [4] and in assay [5] were below 100 nM, at most 100 nM and 200 to 500 nM, respectively.

For `C=CCn1c(=O)c2cnc(Nc3ccc(OCC(C)C)cc3)nc2n1-c1cccc(OC2CCN(C)CC2)n1` [Compound 257, 2-allyl-6-((4-isobutoxyphenyl)amino)-1-(6-((1-methylpiperidin-4-yl)oxy)pyridin-2-yl)-1,2-dihydro-3H-pyrazolo[3,4-d]pyrimidin-3-one], the IC50 in assay [1] is below 10 nM; in assay [3] it was below 20 nM. Further, the EC50 was below 100 nM in assay [2], at most 100 nM in assay [4] and 500 to 1000 nM in assay [5].

For the compound `C=CCn1c(=O)c2cnc(Nc3ccc(OCC4CC4)cc3)nc2n1-c1cccc(OC2CCN(C)CC2)n1` [Compound 258, 2-allyl-6-((4-(cyclopropylmethoxy)phenyl)amino)-1-(6-((1-methylpiperidin-4-yl)oxy)pyridin-2-yl)-1,2-dihydro-3H-pyrazolo[3,4-d]pyrimidin-3-one], the concentration for half-maximal inhibition (IC50) in assay [1] is below 10 nM; in assay [3], below 20 nM. The EC50 in assay [2] was below 100 nM; in assay [4], at most 100 nM; in assay [5], 200 to 500 nM.

In the case of `C=CCn1c(=O)c2cnc(Nc3ccc(OCC4CC4)cc3)nc2n1-c1cccc(OC2CCNCC2)n1` [Compound 259, 2-allyl-6-((4-(cyclopropylmethoxy)phenyl)amino)-1-(6-(piperidin-4-yloxy)pyridin-2-yl)-1,2-dihydro-3H-pyrazolo[3,4-d]pyrimidin-3-one], the IC50 in assay [1] was below 10 nM; in assay [3], below 20 nM. Also, the EC50 in assay [2] is below 100 nM; in assay [4], at most 100 nM; in assay [5], 200 to 500 nM.

On to `C=CCn1c(=O)c2cnc(Nc3ccc4nc(C)sc4c3)nc2n1-c1cccc(OC2CCN(C)CC2)n1` [Compound 260, 2-allyl-6-(2-methyl-1,3-benzothiazol-6-ylamino)-1-[6-(1-methyl-4-piperidyloxy)-2-pyridyl]-1,2-dihydro-3H-1,2,5,7-tetraazainden-3-one], for which the IC50 in assay [1] was below 10 nM; in assay [3] it was below 20 nM. The EC50 in assay [2] was below 100 nM; in assay [4] it was at most 100 nM; in assay [5], 200 to 500 nM.
